± gives the expanded uncertainty stated by the source.
Key:
[1] = for mass density / viscosity: 101.33 kPa, Liquid; for mass density: Vibrating tube method
[2] = molar heat capacity at constant pressure; details: 101.33 kPa, Liquid, Small sample (50 mg) DSC

CCCCCCCC[n+]1ccc2ccccc2c1.N#C[S-] [2-octylisoquinolinium thiocyanate]
Details | mass density, [1] [kg/m3] | molar heat capacity at constant pressure, [2] [J/K/mol] | viscosity, [1] [mPa·s]
278.15 K | – | 510 ± 17 | –
283.15 K | – | 513 ± 17 | –
288.15 K | 1067.27 ± 2.2 | 516 ± 17 | –
293.15 K | 1064.44 ± 2.2 | 519 ± 17 | –
298.15 K | 1061.69 ± 2.1 | 522 ± 17 | 2388 ± 36
303.15 K | 1058.82 ± 2.1 | 525 ± 17 | 1612.1 ± 24
308.15 K | 1055.96 ± 2.1 | 528 ± 18 | 1109.5 ± 17
313.15 K | 1053.11 ± 2.1 | 531 ± 18 | 743.87 ± 11
318.15 K | 1050.26 ± 2.1 | 533 ± 18 | 513.78 ± 7.8
323.15 K | 1047.42 ± 2.1 | 535 ± 18 | 365.48 ± 5.5
328.15 K | 1044.57 ± 2.1 | 537 ± 18 | 266.77 ± 4
333.15 K | 1041.72 ± 2.1 | 538 ± 18 | 199.26 ± 3
338.15 K | 1038.94 ± 2 | 540 ± 18 | 152.21 ± 2.3
343.15 K | 1036.2 ± 2 | 540 ± 18 | 118.51 ± 1.8
348.15 K | 1033.47 ± 2 | – | 93.83 ± 1.4

Details | Glass transition temperature [°C]
[1], Glass, DTA | -57.0 ± 3
